One molecule from patent US20050287114A1, “Water-soluble polymeric bone-targeting drug delivery system” (University of Utah Research Foundation, priority 2003, published 2005) can be followed below.

Data set [1] can be described thus: in vitro bone-targeting capacity: binding of conjugates to hydroxyapatite. The following applies: conjugate 1 mg/mL in phosphate buffered saline, 5 mg HA, 1 h at R.T., UV absorbance of supernatant.
Procedure: Conjugates were dissolved in phosphate buffered saline to give a concentration of 1 mg/mL. The conjugate solution (100 μL) and 100 μL of the same buffer were incubated with 5 mg of hydroxyapatite (HA, Bio-Gel HTP, DNA grade; BIO-RAD, Hercules, Calif.) for 1 h at R.T. The solution was then centrifuged. The UV absorbance at certain wavelengths (FITC, 490 nm; 9-Gly-ATC, 450 nm) of the supernatant was monitored with an ELISA plate reader. Background correction was applied. The data presented is the average of three samples. The binding efficiency is expressed as the percentage of conjugates bound to HA (FIG. 4).
The nature of data set [2]: water solubility of lyophilized product. Type of data set: physicochemical. The procedure:
TC was first transformed into anhydrotetracycline; an amino group was then introduced into the D ring. Stoel, L. et al.(1976) J. Pharm. Sci. 65, 1794-1799; Menachery, M. D. & Cava, M. P. (1984) Can. J. Chem. 62, 2583-2584. Because of the low activity of the aromatic amine, a glycine was coupled to the D ring of the TC molecule in order to introduce a more reactive primary amine by the following procedure. Boc-glycine (192.7 mg, 1.1 mmol), 9-NH2-ATC (514 mg, 1 mmol) and methyl morpholine (MM, 220 μL, 2 mmol) were dissolved in DMF (8 mL) and stirred at 0° C. for 1 h. DCC (227 mg, 1.1 mmol, in 2 mL DCM) was added to the solution and stirred for 1 h. The temperature of the solution was then raised to R.T. and stirred overnight. The resulting suspension was filtered. The solid (product and DCU) was washed three times with ethyl acetate and dried under vacuum. The Boc protection was removed with TFA. DCU was removed to yield 360 mg of 9-Gly-ATC (lyophilized), which is water-soluble.

Take `Cc1c2c(c(O)c3c(O)c(NC(=O)CN)ccc13)C(=O)C1(O)C(=O)C(C(N)=O)=C(O)C(N(C)C)C1C2` (centres unmarked) [9-Gly-ATC, N-(9-aminoanhydrotetracycline)glycyl amide]: the “binding to HA (percentage of conjugates bound to HA)” value in data set [1] was “slightly lower values”. Moreover, in data set [2], the water solubility entry was “water-soluble”.
